Results reported in patent US10138228B2, “Isoxazole derivatives as FXR agonists and methods of use therof” (Enanta Pharmaceuticals, Inc., priority 2016, dated 2018).
pEC50: −log10 of the molar value.

Biological target: human FXR (NR1H4) (Homo sapiens (Human), UniProt Q96RI1)
Assay: Human FXR (NR1H4) Assay (Gal4 promoter driven luciferase reporter, CHO cells)
Type: cell-based
Settings: CHO reporter cells expressing human NR1H4; for Efficacy (%): normalized to CDCA set as 100%; for pEC50: 22 hours incubation, potency ranges
From the text: Human FXR (NR1H4) Assay Determination of a ligand mediated Gal4 promoter driven transactivation to quantify ligand binding mediated activation of FXR. FXR Reporter Assay kit purchased from Indigo Bioscience (Catalogue number: IB00601) to determine the potency and efficacy of compound developed by Enanta that can induce FXR activation. The principle application of this reporter assay system is to quantify functional activity of human FXR. The assay utilizes non-human mammalian cells, CHO (Chinese hamster ovary) cells engineered to express human NR1H4 protein (referred to as FXR). Reporter cells also incorporate the cDNA encoding beetle luciferase which catalyzes the substrates and yields photon emission. Luminescence intensity of the reaction is quantified using a plate-reading luminometer, Envision. Reporter Cells include the luciferase reporter gene functionally linked to an FXR responsive promoter. Thus, quantifying changes in luciferase expression in the treated reporter cells provides a sensitive surrogate measure of the changes in FXR activity. […] The assay is according to the manufacturer's instructions. In brief, the assay was performed in white, 96 well plates using final volume of 100 μl containing cells with different doses of compounds. Retrieve Reporter Cells from −80° C. storage. Perform a rapid thaw of the frozen cells by transferring a 10 ml volume of 37° C. cell recovery medium into the tube of frozen cells. Recap the tube of Reporter Cells and immediately place it in a 37° C. water bath for 5-10 minutes. Retrieve the tube of Reporter Cell Suspension from the water bath. Sanitize the outside surface of the tube with a 70% alcohol swab, and then transfer it into the cell culture hood. Dispense 90 μl of cell suspension into each well of the 96-well Assay Plate. Transfer the plate into 37° C. incubator, allowing the cells adherent to the bottom of the well. Dilute compounds in Dilution Plate (DP), and administrate to cells at Assay Plate (AP). DMSO content of the samples was kept at 0.2%. Cells were incubated for additional 22 hours before luciferase activities were measured. Thirty minutes before intending to quantify FXR activity, remove Detection Substrate and Detection Buffer from the refrigerator and place them in a low-light area so that they may equilibrate to room temperature. Remove the plate's lid and discard all media contents by ejecting it into an appropriate waste container. Gently tap the inverted plate onto a clean absorbent paper towel to remove residual droplets. Cells will remain tightly adhered to well bottoms. Add 100 μl of luciferase detection reagent to each well of the assay plate. Allow the assay plate to rest at room temperature for at least 5 minutes following the addition of LDR. Set the instrument (Envision) to perform a single 5 second “plate shake” prior to reading the first assay well. Read time may be 0.5 second (500 mSec) per well.

Chain of human FXR (NR1H4) (Q96RI1 whole entry, the tested form may be a part): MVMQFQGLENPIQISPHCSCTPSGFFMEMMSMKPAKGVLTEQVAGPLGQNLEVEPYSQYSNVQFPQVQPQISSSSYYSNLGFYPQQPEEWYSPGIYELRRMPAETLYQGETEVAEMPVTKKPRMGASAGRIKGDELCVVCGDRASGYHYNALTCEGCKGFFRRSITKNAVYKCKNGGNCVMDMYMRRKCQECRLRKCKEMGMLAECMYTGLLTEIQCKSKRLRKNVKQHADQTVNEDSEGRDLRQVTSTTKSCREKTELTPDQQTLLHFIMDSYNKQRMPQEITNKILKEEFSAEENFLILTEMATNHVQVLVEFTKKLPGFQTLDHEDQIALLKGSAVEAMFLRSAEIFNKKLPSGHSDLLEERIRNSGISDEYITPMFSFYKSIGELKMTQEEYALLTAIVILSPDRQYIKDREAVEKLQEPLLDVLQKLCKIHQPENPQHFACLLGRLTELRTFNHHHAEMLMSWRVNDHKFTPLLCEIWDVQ

| SMILES | Efficacy (%) | pEC50 |
| --- | --- | --- |
| CN(Cc1ccc(C(=O)NS(=O)(=O)N(C)C)cc1)c1ccc(OCc2c(-c3c(Cl)cccc3Cl)noc2C2CC2)nc1C(F)(F)F [Example 3] | 153 | – |
| CN(Cc1ccc(C(=O)NS(=O)(=O)C2CC2)cc1)c1ccc(OCc2c(-c3c(Cl)cccc3Cl)noc2C2CC2)nc1C(F)(F)F [Example 1] | 145 | 6.00 to 7.00 |
| CN(Cc1ccc(C(=O)NS(=O)(=O)c2ccc(C(C)(C)C)cc2)cc1)c1ccc(OCc2c(-c3c(Cl)cccc3Cl)noc2C2CC2)nc1C(F)(F)F [Example 2] | 108 | 5.00 to 6.00 |
